According to ChEMBL document CHEMBL5331046, “Disulfiram and dithiocarbamate analogues demonstrate promising antischistosomal effects” (Eur J Med Chem, 2022):
Active and inactive are the calls of the source. The rule behind the calls is not given here.

Assays:
Schistosoma mansoni [1] = experiment: Antischistosomal activity against Schistosoma mansoni couples assessed as lethality to parasites at 50 uM measured upto 72 hrs by bright field microscopy; type: functional, organism-based
Schistosoma mansoni [2] = experiment: Antischistosomal activity against Schistosoma mansoni female worm assessed as gut dilatations at 100 uM measured upto 72 hrs by bright field microscopy; type: functional, organism-based
Schistosoma mansoni [3] = experiment: Antischistosomal activity against Schistosoma mansoni female worm assessed as tegument damage at 100 uM measured upto 72 hrs by bright field microscopy; type: functional, organism-based
Schistosoma mansoni [4] = experiment: Antischistosomal activity against Schistosoma mansoni couples assessed as decrease in parasite vitality at <=25 uM measured upto 72 hrs by bright field microscopy; type: functional, organism-based
Schistosoma mansoni [5] = experiment: Antischistosomal activity against Schistosoma mansoni male worm assessed as tegument damage at 100 uM measured upto 72 hrs by bright field microscopy; type: functional, organism-based
Schistosoma mansoni [6] = experiment: Antischistosomal activity against Schistosoma mansoni couples assessed as decrease in parasite motility at 25 uM measured upto 72 hrs by bright field microscopy; type: functional; set-up: scale not given: the % may be the effect or the level left
Schistosoma mansoni [7] = experiment: Antischistosomal activity against Schistosoma mansoni female worm assessed as gut dilatations at 10 uM measured upto 72 hrs by bright field microscopy; type: functional, organism-based
HepG2 = experiment: Cytotoxicity against human HepG2 cells assessed as reduction in cell vaibility at 100 uM by WST-1 assay; type: toxicity, cell-based; details: hepg2, 100 µM
Schistosoma mansoni [8] = experiment: Antischistosomal activity against Schistosoma mansoni couples assessed as inhibition of eggs production at <=25 uM measured upto 72 hrs by bright field microscopy; type: functional, organism-based
Schistosoma mansoni [9] = experiment: Antischistosomal activity against Schistosoma mansoni couples assessed as couple separation at 100 uM measured upto 72 hrs by bright field microscopy; type: functional, organism-based
LS174T = experiment: Cytotoxicity against human LS174T cells assessed as reduction in cell viability at 100 uM by WST-1 assay; type: toxicity, cell-based
Schistosoma mansoni [10] = experiment: Antischistosomal activity against Schistosoma mansoni couples assessed as worm motility at 50 uM treated for 72 hrs and measured at 144 hrs after drug wash-out by bright field microscopy; type: functional
Schistosoma mansoni [11] = experiment: Antischistosomal activity against Schistosoma mansoni infected in mouse assessed as mouse mortality; type: functional
Schistosoma mansoni [12] = experiment: Antischistosomal activity against Schistosoma mansoni couples assessed as worm motility at 50 uM treated for 72 hrs and measured at 192 hrs after drug wash-out by bright field microscopy; type: functional
Schistosoma mansoni [13] = experiment: Antischistosomal activity against Schistosoma mansoni infected in mouse assessed as decrease in granuloma formation; type: functional; set-up: scale not given: the % may be the effect or the level left
Schistosoma mansoni [14] = experiment: Antischistosomal activity against Schistosoma mansoni couples assessed as worm motility at 100 uM treated for 72 hrs and measured at 192 hrs after drug wash-out by bright field microscopy; type: functional
Schistosoma mansoni [15] = experiment: Antischistosomal activity against Schistosoma mansoni couples assessed as worm motility at 25 uM treated for 72 hrs and measured at 144 hrs after drug wash-out by bright field microscopy; type: functional
Schistosoma mansoni [16] = experiment: Antischistosomal activity against Schistosoma mansoni couples assessed as worm motility at 25 uM treated for 72 hrs and measured at 192 hrs after drug wash-out by bright field microscopy; type: functional
Schistosoma mansoni [17] = experiment: Antischistosomal activity against Schistosoma mansoni couples assessed as worm motility at 100 uM treated for 72 hrs and measured at 144 hrs after drug wash-out by bright field microscopy; type: functional
Schistosoma mansoni [18] = experiment: Antischistosomal activity against Schistosoma mansoni couples assessed as reduction in pairing stability at 25 to 100 uM treated for 72 hrs and measured at 144 to 192 hrs after drug wash-out by bright field microscopy; type: functional, organism-based; details: dose 25-100 µM
Schistosoma mansoni [19] = experiment: Antischistosomal activity against Schistosoma mansoni couples assessed as worm motility at 50 uM measured after 72 hrs by bright field microscopy; type: functional
Schistosoma mansoni [20] = experiment: Antischistosomal activity against Schistosoma mansoni couples assessed as worm motility at 100 uM measured after 72 hrs by bright field microscopy; type: functional
Schistosoma mansoni [21] = experiment: Antischistosomal activity against Schistosoma mansoni couples assessed as worm motility at 25 uM measured after 72 hrs by bright field microscopy; type: functional
Schistosoma mansoni [22] = experiment: Antischistosomal activity against Schistosoma mansoni couples assessed as inhibition of eggs production at 100 uM measured upto 72 hrs by bright field microscopy; type: functional; set-up: scale not given: the % may be the effect or the level left
Schistosoma mansoni [23] = experiment: Antischistosomal activity against Schistosoma mansoni couples assessed as pairing instability at 100 uM measured upto 72 hrs by bright field microscopy; type: functional
Schistosoma mansoni [24] = experiment: Antischistosomal activity against Schistosoma mansoni couples assessed as decrease in pairing stability at 5 uM measured upto 72 hrs by bright field microscopy; type: functional; set-up: scale not given: the % may be the effect or the level left
Schistosoma mansoni [25] = experiment: Antischistosomal activity against Schistosoma mansoni couples assessed as inhibition of eggs production at <25 uM measured upto 72 hrs by bright field microscopy; type: functional, organism-based
Schistosoma mansoni [26] = experiment: Antischistosomal activity against Schistosoma mansoni couples assessed as decrease in parasite vitality at 25 uM measured upto 72 hrs by bright field microscopy; type: functional, organism-based
Schistosoma mansoni [27] = experiment: Antischistosomal activity against Schistosoma mansoni couples assessed as decrease in parasite motility at 50 uM measured upto 72 hrs by bright field microscopy; type: functional; set-up: scale not given: the % may be the effect or the level left
Schistosoma mansoni [28] = experiment: Antischistosomal activity against Schistosoma mansoni couples assessed as reduction in pairing stability at 25 uM measured upto 72 hrs by bright field microscopy; type: functional; set-up: scale not given: the % may be the effect or the level left
Schistosoma mansoni [29] = experiment: Antischistosomal activity against Schistosoma mansoni couples assessed as inhibition of eggs production at 25 uM measured upto 72 hrs by bright field microscopy; type: functional; set-up: scale not given: the % may be the effect or the level left
Schistosoma mansoni [30] = experiment: Antischistosomal activity against Schistosoma mansoni couples assessed as tegument damage at 100 uM measured upto 72 hrs by bright field microscopy; type: functional, organism-based
Schistosoma mansoni [31] = experiment: Antischistosomal activity against Schistosoma mansoni couples assessed as decrease in parasite motility at <25 uM measured upto 72 hrs by bright field microscopy; type: functional, organism-based
Schistosoma mansoni [32] = experiment: Antischistosomal activity against Schistosoma mansoni couples assessed as decrease in mating stability <25 uM measured upto 72 hrs by bright field microscopy; type: functional, organism-based
Schistosoma mansoni [33] = experiment: Antischistosomal activity against Schistosoma mansoni couples assessed as lethality to parasites at 100 uM measured upto 72 hrs by bright field microscopy; type: functional, organism-based
Schistosoma mansoni [34] = experiment: Antischistosomal activity against Schistosoma mansoni couples assessed as tegument damage at <=10 uM measured upto 72 hrs by bright field microscopy; type: functional, organism-based
Schistosoma mansoni [35] = experiment: Antischistosomal activity against Schistosoma mansoni couples assessed as reduction in worm motility measured up to 72 hrs by bright field microscopy; type: functional, organism-based
Schistosoma mansoni [36] = experiment: Antischistosomal activity against Schistosoma mansoni couples assessed as induction of phenotypes at 10 uM measured upto 72 hrs by bright field microscopy; type: functional, organism-based
Schistosoma mansoni [37] = experiment: Antischistosomal activity against Schistosoma mansoni couples assessed as tegument damage at 10 uM measured upto 72 hrs by bright field microscopy; type: functional, organism-based
Schistosoma mansoni [38] = experiment: Antischistosomal activity against Schistosoma mansoni couples assessed as reduction in pairing stability measured up to 72 hrs by bright field microscopy; type: functional, organism-based
Schistosoma mansoni [39] = experiment: Antischistosomal activity against Schistosoma mansoni couples assessed as decrease in parasite motility at 15 uM measured upto 72 hrs by bright field microscopy; type: functional; set-up: scale not given: the % may be the effect or the level left
Schistosoma mansoni [40] = experiment: Antischistosomal activity against Schistosoma mansoni couples assessed as gut dilatations at 10 uM measured upto 72 hrs by bright field microscopy; type: functional, organism-based
Schistosoma mansoni [41] = experiment: Antischistosomal activity against Schistosoma mansoni couples assessed as inhibition of eggs production at 15 uM measured upto 72 hrs by bright field microscopy; type: functional; set-up: scale not given: the % may be the effect or the level left
Schistosoma mansoni [42] = experiment: Antischistosomal activity against Schistosoma mansoni couples assessed as decrease in pairing stability at 15 uM measured upto 72 hrs by bright field microscopy; type: functional; set-up: scale not given: the % may be the effect or the level left
Schistosoma mansoni [43] = experiment: Antischistosomal activity against Schistosoma mansoni couples assessed as decrease in parasite motility at 10 uM measured upto 72 hrs by bright field microscopy; type: functional, organism-based
Schistosoma mansoni [44] = experiment: Antischistosomal activity against Schistosoma mansoni couples assessed as decrease in parasite vitality at 15 uM measured upto 72 hrs by bright field microscopy; type: functional; set-up: scale not given: the % may be the effect or the level left
Schistosoma mansoni [45] = experiment: Antischistosomal activity against Schistosoma mansoni couples assessed as loss of internal structures at 10 uM measured upto 72 hrs by bright field microscopy; type: functional, organism-based
Schistosoma mansoni [46] = experiment: Antischistosomal activity against Schistosoma mansoni couples assessed as gut dilatations at <=10 uM measured upto 72 hrs by bright field microscopy; type: functional, organism-based
Schistosoma mansoni [47] = experiment: Antischistosomal activity against Schistosoma mansoni couples assessed as loss of internal structures at <=10 uM measured upto 72 hrs by bright field microscopy; type: functional, organism-based
Schistosoma mansoni [48] = experiment: Antischistosomal activity against Schistosoma mansoni couples assessed as reduction in parasite motility at <=10 uM measured upto 72 hrs by bright field microscopy; type: functional; set-up: scale not given: the % may be the effect or the level left; details: up to 10 µM

SMILES: S=C(SCc1ccccc1)n1ccc2ccccc21
- Activity (Schistosoma mansoni [1]): Active
- Activity (Schistosoma mansoni [2]): Active
- Activity (Schistosoma mansoni [3]): Active
- Activity (Schistosoma mansoni [4]): Active
- Activity (Schistosoma mansoni [5]): Active
- Activity (Schistosoma mansoni [6]): >=55%
- Activity (Schistosoma mansoni [7]): inactive
- Activity (HepG2): Non-Toxic
- Activity (Schistosoma mansoni [8]): Active
- Activity (Schistosoma mansoni [9]): Active
- Activity (LS174T): Non-Toxic

SMILES: CCN(CC)C(=S)SSC(=S)N(CC)CC [DISULFIRAM]
- Activity (Schistosoma mansoni [10]): 75%
- Activity (Schistosoma mansoni [11]): 60%
- Activity (Schistosoma mansoni [12]): 84%
- Activity (Schistosoma mansoni [13]): 80%
- Activity (Schistosoma mansoni [14]): 76%
- Activity (Schistosoma mansoni [15]): 73%
- Activity (Schistosoma mansoni [16]): 67%
- Activity (Schistosoma mansoni [17]): 71%
- Activity (Schistosoma mansoni [18]): inactive
- Activity (Schistosoma mansoni [19]): 62%
- Activity (Schistosoma mansoni [20]): 56%
- Activity (Schistosoma mansoni [21]): 69%

SMILES: CCN(CC)C(=S)SCCN1CCCCC1
- Activity (Schistosoma mansoni [22]): >80%
- Activity (Schistosoma mansoni [23]): 100%
- Activity (Schistosoma mansoni [24]): 100%

SMILES: CCN(CC)C(=S)SCc1cc([N+](=O)[O-])ccc1O
- Activity (Schistosoma mansoni [25]): inactive
- Activity (Schistosoma mansoni [26]): inactive
- Activity (Schistosoma mansoni [27]): >60%
- Activity (Schistosoma mansoni [28]): >=90%
- Activity (Schistosoma mansoni [29]): >=90%
- Activity (Schistosoma mansoni [6]): inactive
- Activity (Schistosoma mansoni [30]): Active
- Activity (Schistosoma mansoni [31]): inactive
- Activity (Schistosoma mansoni [32]): inactive
- Activity (Schistosoma mansoni [33]): Active

SMILES: CS(=O)(=O)N1CCN(C(=S)SCc2ccc([N+](=O)[O-])cc2)CC1
- Activity (Schistosoma mansoni [10]): 27%
- Activity (Schistosoma mansoni [34]): inactive
- Activity (Schistosoma mansoni [12]): 28%
- EC50 (Schistosoma mansoni [35]): 9.6 µM
- Activity (Schistosoma mansoni [14]): 24%
- Activity (Schistosoma mansoni [15]): 36%
- Activity (Schistosoma mansoni [36]): Active
- Activity (Schistosoma mansoni [16]): 35%
- Activity (Schistosoma mansoni [37]): Active
- EC50 (Schistosoma mansoni [38]): 9.2 µM
- Activity (Schistosoma mansoni [17]): 24%
- Activity (Schistosoma mansoni [39]): 50%
- Activity (Schistosoma mansoni [40]): Active
- Activity (Schistosoma mansoni [41]): 40%
- Activity (Schistosoma mansoni [19]): 31%
- Activity (Schistosoma mansoni [42]): 20%
- Activity (HepG2): Non-Toxic
- Activity (Schistosoma mansoni [43]): Active
- Activity (Schistosoma mansoni [20]): 31%
- Activity (Schistosoma mansoni [21]): 35%
- Activity (Schistosoma mansoni [44]): 90%
- Activity (Schistosoma mansoni [45]): Active
- Activity (Schistosoma mansoni [46]): inactive
- Activity (Schistosoma mansoni [47]): inactive
- Activity (LS174T): Non-Toxic
- Activity (Schistosoma mansoni [48]): 50%
